Test results as given in ChEMBL document CHEMBL3046063, “Synthesis and antimicrobial activity of 5-chloroindoline-2,3-dione derivatives” (2012).
≈ marks a conversion by molar mass, not a printed value.

How the values were obtained:
Type in all cases: functional
[1] = test system: Bacillus spizizenii; assay: Antimicrobial activity against Bacillus subtilis subsp. spizizenii ATCC 6633 after 24 hr by broth dilution method; conditions: ATCC 6633, 24 h
[2] = test system: Staphylococcus epidermidis; assay: Antimicrobial activity against Staphylococcus epidermidis ATCC 12228 after 24 hr by broth dilution method; conditions: ATCC 12228, 24 h
[3] = test system: Micrococcus luteus; assay: Antimicrobial activity against Micrococcus luteus ATCC 4698 after 24 hr by broth dilution method; conditions: ATCC 4698, 24 h
[4] = test system: Staphylococcus aureus; assay: Antimicrobial activity against Staphylococcus aureus ATCC 25923 after 24 hr by broth dilution method; conditions: ATCC 25923, 24 h
[5] = test system: Staphylococcus hominis; assay: Antimicrobial activity against Staphylococcus hominis ATCC 27844 after 24 hr by broth dilution method; conditions: ATCC 27844, 24 h
[6] = test system: Bacillus pumilus; assay: Antimicrobial activity against Bacillus pumilus ATCC 14884 after 24 hr by broth dilution method; conditions: ATCC 14884, 24 h
[7] = test system: Bacillus cereus; assay: Antimicrobial activity against Bacillus cereus ATCC 11778 after 24 hr by broth dilution method; conditions: ATCC 11778, 24 h
[8] = test system: Proteus vulgaris; assay: Antimicrobial activity against Proteus vulgaris ATCC 13315 after 24 hr by broth dilution method; conditions: ATCC 13315, 24 h
[9] = test system: Proteus mirabilis; assay: Antimicrobial activity against Proteus mirabilis ATCC 49565 after 24 hr by broth dilution method; conditions: ATCC 49565, 24 h
[10] = test system: Salmonella typhi; assay: Antimicrobial activity against Salmonella enterica subsp. enterica serovar Typhi ATCC 19430 after 24 hr by broth dilution method; conditions: ATCC 19430, 24 h
[11] = test system: Klebsiella pneumoniae; assay: Antimicrobial activity against Klebsiella pneumoniae ATCC 13883 after 24 hr by broth dilution method; conditions: ATCC 13883, 24 h
[12] = test system: Escherichia coli; assay: Antimicrobial activity against Escherichia coli ATCC 25922 after 24 hr by broth dilution method; conditions: ATCC 25922, 24 h
[13] = test system: Pseudomonas aeruginosa; assay: Antimicrobial activity against Pseudomonas aeruginosa ATCC 10145 after 24 hr by broth dilution method; conditions: ATCC 10145, 24 h
[14] = test system: Aspergillus niger; assay: Antimicrobial activity against Aspergillus niger ATCC 9142 after 24 hr by broth dilution method; conditions: ATCC 9142, 24 h
[15] = test system: Aspergillus awamori; assay: Antimicrobial activity against Aspergillus awamori ATCC 22342 after 24 hr by broth dilution method; conditions: ATCC 22342, 24 h
[16] = test system: Candida albicans; assay: Antimicrobial activity against Candida albicans ATCC 10231 after 24 hr by broth dilution method; conditions: ATCC 10231, 24 h
[17] = test system: Alternaria alternata; assay: Antimicrobial activity against Alternaria alternata ATCC 66868 after 24 hr by broth dilution method; conditions: ATCC 66868, 24 h
[18] = test system: Microsporum canis; assay: Antimicrobial activity against Arthroderma otae ATCC 11622 after 24 hr by broth dilution method; conditions: ATCC 11622, 24 h
[19] = test system: Rhizoctonia solani; assay: Antimicrobial activity against Rhizoctonia solani ATCC 76131 after 24 hr by broth dilution method; conditions: ATCC 76131, 24 h
[20] = test system: Trichophyton longifusum; assay: Antimicrobial activity against Trichophyton longifusum ATCC 22397 after 24 hr by broth dilution method; conditions: ATCC 22397, 24 h
[21] = test system: Fusarium solani; assay: Antimicrobial activity against Fusarium solani ATCC 38136 after 24 hr by broth dilution method; conditions: ATCC 38136, 24 h
[22] = test system: Trichoderma viride; assay: Antimicrobial activity against Hypocrea rufa ATCC 52440 after 24 hr by broth dilution method; conditions: ATCC 52440, 24 h
[23] = test system: Aspergillus flavus; assay: Antimicrobial activity against Aspergillus flavus ATCC 15517 after 24 hr by broth dilution method; conditions: ATCC 15517, 24 h
[24] = test system: Aspergillus fumigatus; assay: Antimicrobial activity against Aspergillus fumigatus after 24 hr by broth dilution method

SMILES | MIC [1] [µg/mL] | MIC [2] [µg/mL] | MIC [3] [µg/mL] | MIC [4] [µg/mL] | MIC [5] [µg/mL] | MIC [6] [µg/mL] | MIC [7] [µg/mL] | MIC [8] [µg/mL] | MIC [9] [µg/mL] | MIC [10] [µg/mL] | MIC [11] [µg/mL] | MIC [12] [µg/mL] | MIC [13] [µg/mL] | MIC [14] [µg/mL] | MIC [15] [µg/mL] | MIC [16] [µg/mL] | MIC [17] [µg/mL] | MIC [18] [µg/mL] | MIC [19] [µg/mL] | MIC [20] [µg/mL] | further results
O=C1Nc2ccc(Cl)cc2/C1=N/N1C(=O)C(Cl)C1c1ccc([N+](=O)[O-])cc1 (centres undefined) | 9.37 (≈ 23.1 µM) | 18.8 (≈ 46.3 µM) | 9.37 (≈ 23.1 µM) | 18.8 (≈ 46.3 µM) | 18.8 (≈ 46.3 µM) | 9.37 (≈ 23.1 µM) | 9.37 (≈ 23.1 µM) | 9.37 (≈ 23.1 µM) | 9.37 (≈ 23.1 µM) | 9.37 (≈ 23.1 µM) | 9.37 (≈ 23.1 µM) | 18.8 (≈ 46.3 µM) | 9.37 (≈ 23.1 µM) | 4.68 (≈ 11.5 µM) | 9.37 (≈ 23.1 µM) | 4.68 (≈ 11.5 µM) | 4.68 (≈ 11.5 µM) | 4.68 (≈ 11.5 µM) | 9.37 (≈ 23.1 µM) | 9.37 (≈ 23.1 µM) | MIC [21]: 9.37 µg/mL (≈ 23.1 µM); MIC [22]: 9.37 µg/mL (≈ 23.1 µM); MIC [23]: 4.68 µg/mL (≈ 11.5 µM); MIC [24]: 9.37 µg/mL (≈ 23.1 µM)
COc1cccc(C2SCC(=O)N2/N=C2\C(=O)Nc3ccc(Cl)cc32)c1 (centres undefined) | 75 (≈ 193 µM) | 75 (≈ 193 µM) | 75 (≈ 193 µM) | 37.5 (≈ 96.7 µM) | 37.5 (≈ 96.7 µM) | 75 (≈ 193 µM) | 75 (≈ 193 µM) | 37.5 (≈ 96.7 µM) | 37.5 (≈ 96.7 µM) | 75 (≈ 193 µM) | 37.5 (≈ 96.7 µM) | 75 (≈ 193 µM) | 75 (≈ 193 µM) | 37.5 (≈ 96.7 µM) | 37.5 (≈ 96.7 µM) | 18.8 (≈ 48.3 µM) | 18.8 (≈ 48.3 µM) | 18.8 (≈ 48.3 µM) | 18.8 (≈ 48.3 µM) | 37.5 (≈ 96.7 µM) | MIC [21]: 18.8 µg/mL (≈ 48.3 µM); MIC [22]: 18.8 µg/mL (≈ 48.3 µM); MIC [23]: 18.8 µg/mL (≈ 48.3 µM); MIC [24]: 37.5 µg/mL (≈ 96.7 µM)
O=C1Nc2ccc(Cl)cc2/C1=N/N1C(=O)C(Cl)C1c1ccccc1 (centres undefined) | 37.5 (≈ 104 µM) | 37.5 (≈ 104 µM) | 37.5 (≈ 104 µM) | 75 (≈ 208 µM) | 75 (≈ 208 µM) | 37.5 (≈ 104 µM) | 37.5 (≈ 104 µM) | 37.5 (≈ 104 µM) | 37.5 (≈ 104 µM) | 75 (≈ 208 µM) | 37.5 (≈ 104 µM) | 37.5 (≈ 104 µM) | 37.5 (≈ 104 µM) | 18.8 (≈ 52.1 µM) | 37.5 (≈ 104 µM) | 37.5 (≈ 104 µM) | 18.8 (≈ 52.1 µM) | 37.5 (≈ 104 µM) | 18.8 (≈ 52.1 µM) | 37.5 (≈ 104 µM) | MIC [21]: 18.8 µg/mL (≈ 52.1 µM); MIC [22]: 18.8 µg/mL (≈ 52.1 µM); MIC [23]: 18.8 µg/mL (≈ 52.1 µM); MIC [24]: 37.5 µg/mL (≈ 104 µM)
O=C1Nc2ccc(Cl)cc2/C1=N/N1C(=O)CSC1c1ccccc1 (centres undefined) | 75 (≈ 210 µM) | 37.5 (≈ 105 µM) | 37.5 (≈ 105 µM) | 37.5 (≈ 105 µM) | 75 (≈ 210 µM) | 75 (≈ 210 µM) | 37.5 (≈ 105 µM) | 75 (≈ 210 µM) | 75 (≈ 210 µM) | 75 (≈ 210 µM) | 37.5 (≈ 105 µM) | 37.5 (≈ 105 µM) | 37.5 (≈ 105 µM) | 18.8 (≈ 52.4 µM) | 18.8 (≈ 52.4 µM) | 9.37 (≈ 26.2 µM) | 37.5 (≈ 105 µM) | 37.5 (≈ 105 µM) | 37.5 (≈ 105 µM) | 18.8 (≈ 52.4 µM) | MIC [21]: 18.8 µg/mL (≈ 52.4 µM); MIC [22]: 37.5 µg/mL (≈ 105 µM); MIC [23]: 37.5 µg/mL (≈ 105 µM); MIC [24]: 18.8 µg/mL (≈ 52.4 µM)
O=C1Nc2ccc(Cl)cc2/C1=N/N1C(=O)C(Cl)C1c1ccc(Cl)cc1 (centres undefined) | 9.37 (≈ 23.7 µM) | 18.8 (≈ 47.5 µM) | 18.8 (≈ 47.5 µM) | 18.8 (≈ 47.5 µM) | 9.37 (≈ 23.7 µM) | 9.37 (≈ 23.7 µM) | 18.8 (≈ 47.5 µM) | 9.37 (≈ 23.7 µM) | 18.8 (≈ 47.5 µM) | 9.37 (≈ 23.7 µM) | 9.37 (≈ 23.7 µM) | 18.8 (≈ 47.5 µM) | 18.8 (≈ 47.5 µM) | 4.68 (≈ 11.9 µM) | 4.68 (≈ 11.9 µM) | 4.68 (≈ 11.9 µM) | 9.37 (≈ 23.7 µM) | 9.37 (≈ 23.7 µM) | 9.37 (≈ 23.7 µM) | 4.68 (≈ 11.9 µM) | MIC [21]: 4.68 µg/mL (≈ 11.9 µM); MIC [22]: 4.68 µg/mL (≈ 11.9 µM); MIC [23]: 9.37 µg/mL (≈ 23.7 µM); MIC [24]: 4.68 µg/mL (≈ 11.9 µM)
O=C1Nc2ccc(Cl)cc2/C1=N/N1C(=O)CSC1c1ccccc1O (centres undefined) | 150 (≈ 401 µM) | 300 (≈ 803 µM) | 150 (≈ 401 µM) | 300 (≈ 803 µM) | 150 (≈ 401 µM) | 150 (≈ 401 µM) | 150 (≈ 401 µM) | 150 (≈ 401 µM) | 300 (≈ 803 µM) | 150 (≈ 401 µM) | 300 (≈ 803 µM) | 300 (≈ 803 µM) | 300 (≈ 803 µM) | 150 (≈ 401 µM) | 150 (≈ 401 µM) | 75 (≈ 201 µM) | 75 (≈ 201 µM) | 75 (≈ 201 µM) | 150 (≈ 401 µM) | 150 (≈ 401 µM) | MIC [21]: 150 µg/mL (≈ 401 µM); MIC [22]: 150 µg/mL (≈ 401 µM); MIC [23]: 75 µg/mL (≈ 201 µM); MIC [24]: 150 µg/mL (≈ 401 µM)
